Measurements: the NIST ThermoML archive (doi:10.1021/je101316g)
Numbers after ± are expanded uncertainties.

Columns and labels:
[1] = 101.33 kPa, Liquid; for mass density: Vibrating tube method
[2] = refractive index (Na D-line) (dimensionless); settings: 101.33 kPa, Liquid, Standard Abbe refractometry

Row | SMILES | mass density ([1]; 293.15 K) | viscosity ([1]; 298.15 K) | mass density ([1]; 298.15 K) | viscosity ([1]; 303.15 K) | mass density ([1]; 303.15 K) | viscosity ([1]; 308.15 K) | mass density ([1]; 308.15 K) | viscosity ([1]; 313.15 K) | mass density ([1]; 313.15 K) | viscosity ([1]; 318.15 K) | mass density ([1]; 318.15 K) | viscosity ([1]; 323.15 K) | mass density ([1]; 323.15 K) | viscosity ([1]; 328.15 K) | mass density ([1]; 328.15 K) | viscosity ([1]; 333.15 K) | mass density ([1]; 333.15 K) | viscosity ([1]; 338.15 K) | mass density ([1]; 338.15 K) | viscosity ([1]; 343.15 K) | also measured
1 | CCCCCCn1cc[n+](CCC#N)c1.O=S(=O)([O-])C(F)(F)F | 1289.6 ± 4.6 kg/m3 | 1469.7 ± 270 mPa·s | 1285.7 ± 4.6 kg/m3 | 991.9 ± 160 mPa·s | 1281.9 ± 4.6 kg/m3 | 648.5 ± 91 mPa·s | 1278.3 ± 4.6 kg/m3 | 437.8 ± 52 mPa·s | 1274.6 ± 4.5 kg/m3 | 301.9 ± 30 mPa·s | 1271 ± 4.5 kg/m3 | 214 ± 18 mPa·s | 1267.4 ± 4.5 kg/m3 | 155.1 ± 10 mPa·s | 1263.8 ± 4.5 kg/m3 | 102.7 ± 4.7 mPa·s | 1260.2 ± 4.4 kg/m3 | 77.4 ± 2.5 mPa·s | 1256.6 ± 4.4 kg/m3 | 54.8 ± 1.3 mPa·s | viscosity ([1]; 293.15 K): 2243.6 ± 460 mPa·s; mass density ([1]; 343.15 K): 1253.1 ± 4.4 kg/m3; viscosity ([1]; 348.15 K): 40.1 ± 1 mPa·s; mass density ([1]; 348.15 K): 1249.2 ± 4.3 kg/m3; viscosity ([1]; 353.15 K): 29.4 ± 0.8 mPa·s; mass density ([1]; 353.15 K): 1245.8 ± 4.3 kg/m3; refractive index ([2]; 298.15 K): 1.52975 ± 0.0008; refractive index ([2]; 303.15 K): 1.52891 ± 0.00081; refractive index ([2]; 308.15 K): 1.52774 ± 0.00081; refractive index ([2]; 313.15 K): 1.52683 ± 0.00081; refractive index ([2]; 318.15 K): 1.5259 ± 0.00081; refractive index ([2]; 323.15 K): 1.52464 ± 0.00082; refractive index ([2]; 328.15 K): 1.52334 ± 0.00082; refractive index ([2]; 333.15 K): 1.52226 ± 0.00081
2 | CCCCCCn1cc[n+](CCC#N)c1.O=C([O-])c1cccc(S(=O)(=O)O)c1 [3-(2-cyanoethyl)-1-hexyl-1H-imidazolium 3-sulfobenzoate] | 1248.1 ± 3.6 kg/m3 | 11463 ± 3400 mPa·s | 1244.6 ± 3.6 kg/m3 | 7578.3 ± 2100 mPa·s | 1241.2 ± 3.6 kg/m3 | 4765.8 ± 1200 mPa·s | 1238 ± 3.6 kg/m3 | 3001.1 ± 670 mPa·s | 1234.7 ± 3.6 kg/m3 | 1953.3 ± 390 mPa·s | 1231.5 ± 3.5 kg/m3 | 1189.9 ± 210 mPa·s | 1228.2 ± 3.5 kg/m3 | 830.5 ± 130 mPa·s | 1225 ± 3.5 kg/m3 | 557.3 ± 74 mPa·s | 1221.8 ± 3.5 kg/m3 | 352.1 ± 38 mPa·s | 1218.6 ± 3.5 kg/m3 | 225.5 ± 19 mPa·s | viscosity ([1]; 293.15 K): 19212 ± 6200 mPa·s; mass density ([1]; 343.15 K): 1215.4 ± 3.4 kg/m3; viscosity ([1]; 348.15 K): 133.6 ± 7.9 mPa·s; mass density ([1]; 348.15 K): 1212.1 ± 3.4 kg/m3; viscosity ([1]; 353.15 K): 92.8 ± 3.8 mPa·s; mass density ([1]; 353.15 K): 1208.9 ± 3.4 kg/m3; refractive index ([2]; 298.15 K): 1.52295 ± 0.00074; refractive index ([2]; 303.15 K): 1.52221 ± 0.00074; refractive index ([2]; 308.15 K): 1.52146 ± 0.00075; refractive index ([2]; 313.15 K): 1.52029 ± 0.00076; refractive index ([2]; 318.15 K): 1.51936 ± 0.00076; refractive index ([2]; 323.15 K): 1.518 ± 0.00078; refractive index ([2]; 328.15 K): 1.51666 ± 0.00079; refractive index ([2]; 333.15 K): 1.51502 ± 0.0008
3 | CCCCCCCCCCCCOS(=O)(=O)[O-].CCCCCCn1cc[n+](CCC#N)c1 [3-(2-cyanoethyl)-1-hexyl-1H-imidazolium dodecyl sulfate] | 1101.1 ± 2.3 kg/m3 | 13770 ± 4200 mPa·s | 1097.8 ± 2.3 kg/m3 | 8252.7 ± 2300 mPa·s | 1094.5 ± 2.3 kg/m3 | 5185.2 ± 1300 mPa·s | 1091.2 ± 2.3 kg/m3 | 3354.6 ± 760 mPa·s | 1088 ± 2.3 kg/m3 | 2051 ± 410 mPa·s | 1084.7 ± 2.3 kg/m3 | 1301.8 ± 230 mPa·s | 1081.5 ± 2.3 kg/m3 | 846.3 ± 130 mPa·s | 1078.3 ± 2.3 kg/m3 | 566.9 ± 75 mPa·s | 1075.1 ± 2.2 kg/m3 | 390.1 ± 44 mPa·s | 1071.9 ± 2.2 kg/m3 | 274.9 ± 26 mPa·s | mass density ([1]; 343.15 K): 1068.8 ± 2.2 kg/m3; viscosity ([1]; 348.15 K): 189.5 ± 14 mPa·s; mass density ([1]; 348.15 K): 1065.6 ± 2.2 kg/m3; viscosity ([1]; 353.15 K): 133.6 ± 7.7 mPa·s; mass density ([1]; 353.15 K): 1062.6 ± 2.2 kg/m3; refractive index ([2]; 298.15 K): 1.48409 ± 0.00073; refractive index ([2]; 303.15 K): 1.48269 ± 0.00073; refractive index ([2]; 308.15 K): 1.48125 ± 0.00073; refractive index ([2]; 313.15 K): 1.47991 ± 0.00072; refractive index ([2]; 318.15 K): 1.47863 ± 0.00073; refractive index ([2]; 323.15 K): 1.47702 ± 0.00074; refractive index ([2]; 328.15 K): 1.47566 ± 0.00073; refractive index ([2]; 333.15 K): 1.47422 ± 0.00073
4 | CCCCC(CC)COC(=O)CC(C(=O)OCC(CC)CCCC)S(=O)(=O)[O-].CCCCCC[n+]1ccn(CCC#N)c1 (stereo not drawn) | 1092.7 ± 2.6 kg/m3 | 19896 ± 6400 mPa·s | 1089 ± 2.6 kg/m3 | 12117 ± 3600 mPa·s | 1085.4 ± 2.6 kg/m3 | 7571.4 ± 2100 mPa·s | 1081.8 ± 2.5 kg/m3 | 4586.7 ± 1100 mPa·s | 1078.3 ± 2.5 kg/m3 | 2939.5 ± 650 mPa·s | 1074.8 ± 2.5 kg/m3 | 1947.7 ± 390 mPa·s | 1071.3 ± 2.5 kg/m3 | 1264.7 ± 220 mPa·s | 1067.9 ± 2.5 kg/m3 | 848.3 ± 130 mPa·s | 1064.4 ± 2.5 kg/m3 | 579.4 ± 78 mPa·s | 1061 ± 2.4 kg/m3 | 411.4 ± 48 mPa·s | mass density ([1]; 343.15 K): 1057.6 ± 2.4 kg/m3; viscosity ([1]; 348.15 K): 278.6 ± 27 mPa·s; mass density ([1]; 348.15 K): 1054.2 ± 2.4 kg/m3; viscosity ([1]; 353.15 K): 191.2 ± 15 mPa·s; mass density ([1]; 353.15 K): 1050.7 ± 2.4 kg/m3; refractive index ([2]; 298.15 K): 1.4797 ± 0.00076; refractive index ([2]; 303.15 K): 1.47841 ± 0.00076; refractive index ([2]; 308.15 K): 1.47709 ± 0.00076; refractive index ([2]; 313.15 K): 1.4758 ± 0.00076; refractive index ([2]; 318.15 K): 1.47447 ± 0.00076; refractive index ([2]; 323.15 K): 1.47305 ± 0.00076; refractive index ([2]; 328.15 K): 1.47171 ± 0.00076; refractive index ([2]; 333.15 K): 1.47029 ± 0.00077
5 | CCCCCCn1cc[n+](CCC#N)c1.O=S(=O)([O-])c1ccccc1 [3-(2-cyanoethyl)-1-hexyl-1H-imidazolium benzenesulfonate] | 1226 ± 2.5 kg/m3 | 4268.1 ± 1000 mPa·s | 1222.7 ± 2.5 kg/m3 | 2865.6 ± 630 mPa·s | 1219.4 ± 2.5 kg/m3 | 1795.1 ± 350 mPa·s | 1216.1 ± 2.5 kg/m3 | 1170.4 ± 200 mPa·s | 1212.8 ± 2.5 kg/m3 | 781.3 ± 120 mPa·s | 1209.6 ± 2.5 kg/m3 | 537.6 ± 70 mPa·s | 1206.3 ± 2.5 kg/m3 | 359.9 ± 39 mPa·s | 1203 ± 2.4 kg/m3 | 274.2 ± 26 mPa·s | 1199.7 ± 2.4 kg/m3 | 181 ± 13 mPa·s | 1196.5 ± 2.4 kg/m3 | 133.6 ± 7.6 mPa·s | viscosity ([1]; 293.15 K): 7079.4 ± 1900 mPa·s; mass density ([1]; 343.15 K): 1193.3 ± 2.4 kg/m3; viscosity ([1]; 348.15 K): 94.6 ± 3.8 mPa·s; mass density ([1]; 348.15 K): 1190.1 ± 2.4 kg/m3; viscosity ([1]; 353.15 K): 70 ± 1.9 mPa·s; mass density ([1]; 353.15 K): 1187.8 ± 2.4 kg/m3; refractive index ([2]; 298.15 K): 1.527 ± 0.00066; refractive index ([2]; 303.15 K): 1.5261 ± 0.00067; refractive index ([2]; 308.15 K): 1.52499 ± 0.00068; refractive index ([2]; 313.15 K): 1.52382 ± 0.00068; refractive index ([2]; 318.15 K): 1.52266 ± 0.00068; refractive index ([2]; 323.15 K): 1.52145 ± 0.00068; refractive index ([2]; 328.15 K): 1.52025 ± 0.00069; refractive index ([2]; 333.15 K): 1.51899 ± 0.00069
